In patent US20180185370A1, “PYRAZINOQUINAZOLINONE DERIVATIVES WITH ANTIBACTERIAL ACTIVITY, METHODS AND USES THEREOF” (UNIVERSIDADE DO PORTO, priority 2015, published 2018):
In brackets after ≈: the same amount, converted by molar mass.

Assays:
[1] = test system: S. aureus ATCC 25923, E. faecalis ATCC 29212, S. aureus B1 and E. faecalis W1; assay: Inhibition of biofilm formation, crystal violet assay; assay type: cell-based; conditions: for biofilm formation (biomass, crystal violet): 24 h
Method: The efficacy of neofiscalin A was also evaluated in hampering the biofilm formation. Neofiscalin A, in particular, at concentrations of 2×MIC, MIC, ½×MIC and ¼×MIC was added to bacterial suspensions of 1×10^6 CFU/ml in Tryptic Soy Broth (TSB—BioKar diagnostics, Allonne, France) of S. aureus ATCC 25923, E. faecalis ATCC 29212, S. aureus B1 and E. faecalis W1. Bacterial suspensions in absence of the compound were used as controls. Biofilm formation was induced, in particular, in 96-well flat-bottomed microtiter plates (200 μL/well) for 24 h at 37° C. After that time, biofilm biomass was quantified through the crystal violet assay as follows: the planktonic phase was discharged, then the biofilm was stained with 0.5% crystal violet for 5 min, rinsed with water, air dried and eluted with acetic acid 33% (v/v). The optical density was measured at 595 nm (0D595) using a microplate reader (iMark™ microplate absorbance reader, Bio-Rad Laboratories, Hercules, Calif., USA). Two independent experiments were performed in triplicate for each experimental condition. The statistical significance of the difference between biofilm controls and biofilms in the presence of different concentrations of compounds was evaluated using Student's t test. In both cases, probability levels <0.05 were considered statistically significant. Additionally, a microscopic visualization of the biofilms of S. aureus B1 and E. faecalis W1 was performed, in particular, using the Live/Dead BacLight viability kit (Life Technologies—Molecular Probes, Carlsbad, Calif., USA). Biofilms were formed, in particular, in 35-mm diameter polystyrene plates using TSB (control) and TSB supplemented with the MIC or ¼×MIC of neofiscalin A. After 24 h at 37° C., the planktonic phase was removed from each plate and the biofilms were washed with PBS, stained with the appropriate mixture of SYTO 9 and propidium iodide stains and incubated for 20 min at room temperature, in particular 20-25° C., in the dark; then, biofilms were rinsed and examined under a fluorescence microscope (BX41 Microscope, Olympus America Inc., Center Valley, Pa., USA). Images were recorded at an emission wavelength of 500 nm for SYTO 9 (green fluorescence) and of 635 nm for propidium iodide (red fluorescence).

E. faecalis W1 [2] = assay: Biofilm metabolic activity after treatment, MTT; assay type: cell-based, Enterococcus faecalis; conditions: 24-h biofilms of E. faecalis W1 treated for 24 h with 200 μg/ml
Method: (§1) Evaluation of the biofilm metabolic activity after treatment with different concentrations of neofiscalin A. Twenty four-hours biofilms of S. aureus B1 and E. faecalis W1 formed as above described were subsequently treated with high concentrations of neofiscalin A, in particular up to 25×MIC. After 24 h of incubation at 37° C., the bacterial metabolic activity of biofilms was quantified using the 3-(4,5-dimethylthiazole-2-yl)-2,5-diphenyl tetrazolium bromide (MTT, Sigma-Aldrich, St Louis, USA). MTT is used to assess cell viability as a function of redox potential. Actively respiring cells convert the water-soluble MU to an insoluble purple formazan. The formazan is then solubilized and its concentration determined by optical density. In this assay, biofilms were treated with MU (0.5 mg/ml) for 2 h at 37° C. in the dark. DMSO was used to extract the formazan dye product and then the absorbance at 550 nm was measured.

S. aureus B1 [3] = assay: Biofilm metabolic activity after treatment, MTT; assay type: cell-based, Staphylococcus aureus; conditions: 24-h biofilms of S. aureus B1 treated for 24 h with 200 μg/ml
Method: as §1

B. subtilis ATCC 6633 = assay: Antibacterial susceptibility testing, broth microdilution (MIC/MBC); assay type: cell-based, Bacillus subtilis
Method: (§2) Bacterial strains and growth conditions. Five reference strains, Staphylococcus aureus ATCC 25923, Bacillus subtilis ATCC 6633, E. faecalis ATCC 29212, Escherichia coli ATCC 25922 and Pseudomonas aeruginosa ATCC 27853, and three multidrug-resistant isolates from environment, S. aureus B1 (a MRSA isolated from public buses), Enterococcus faecalis W1 (a VRE isolated from river water) and E. coli G1 (isolated from seagull feces) were used. Bacteria were grown overnight at 37° C. in Mueller-Hinton agar (MH—BioKar diagnostics, Allonne, France) prior to obtain be used in the subsequently described bioassays.
(§3) Antibacterial susceptibility testing. The minimum inhibitory concentration (MIC) values of the compounds of FIGS. 1D, 1E, 1G, 1H (equation i-iv) and 11 (equations v-x) were determined, in particular, by a broth microdilution technique, following the recommendations of the Clinical and Laboratory Standards Institute. Stock solutions of 10 mg/ml in DMSO were used to prepare in-test concentrations ranging from 2 to 256 μg/ml. Ciprofloxacin in the concentration range from 0.03125 to 16 μg/ml was used, in particular, as control drug in the experiment. The MIC was defined as the lowest concentration of compound that has inhibited the visible growth. The minimum bactericidal concentration (MBC) was determined by spreading on MH plates, 10 μL collected from the wells corresponding to the MIC and to higher concentrations, with further incubation for 24 h at 37° C.; the lowest concentration at which no growth occurred on MH was defined as the MBC.

S. aureus B1 (MRSA) = assay: as above; assay type: cell-based, Staphylococcus aureus; conditions: S. aureus B1 (MRSA)
Method: as §2, §3

S. aureus ATCC 25923 = assay: as above; assay type: cell-based, Staphylococcus aureus
Method: as §2, §3

[4] = test system: S. aureus and E. faecalis strains; assay: Antibacterial susceptibility testing; assay type: cell-based
Method: as §2, §3

E. faecalis W1 [5] = assay: Biofilm inhibitory and biofilm eradication concentrations on 24-h mature biofilms; assay type: cell-based, Enterococcus faecalis
Method: (§4) Determination of neofiscalin A biofilm inhibitory and biofilm eradication concentrations. The efficacy of neofiscalin A on 24-h mature biofilms of S. aureus B1 and E. faecalis W1 was also evaluated, in particular, by determining the BIC and the BEC. […] The optical density at 595 nm was measured at time 0 and after incubation for 24 h at 37° C. The BIC was determined as the lowest concentration of the compound inhibiting growth in the supernatant fluid, confirmed by no increase in the optical density compared with the initial reading. The BEC was determined as the lowest concentration that prevented regrowth of biofilm cells on tryptic soy agar plates.

E. coli ATCC 25922 = assay: Antibacterial susceptibility testing, broth microdilution (MIC); assay type: cell-based, Escherichia coli
Method: as §2, §3

[6] = test system: S. aureus B1 and E. faecalis W1; assay: Microscopic visualization of biofilms, Live/Dead staining; assay type: cell-based; conditions: 24 h
Method: The efficacy of neofiscalin A was also evaluated in hampering the biofilm formation. Neofiscalin A, in particular, at concentrations of 2×MIC, MIC, ½×MIC and ¼×MIC was added to bacterial suspensions of 1×10^6 CFU/ml in Tryptic Soy Broth (TSB—BioKar diagnostics, Allonne, France) of S. aureus ATCC 25923, E. faecalis ATCC 29212, S. aureus B1 and E. faecalis W1. Bacterial suspensions in absence of the compound were used as controls. Biofilm formation was induced, in particular, in 96-well flat-bottomed microtiter plates (200 μL/well) for 24 h at 37° C. After that time, biofilm biomass was quantified through the crystal violet assay as follows: the planktonic phase was discharged, then the biofilm was stained with 0.5% crystal violet for 5 min, rinsed with water, air dried and eluted with acetic acid 33% (v/v). The optical density was measured at 595 nm (0D595) using a microplate reader (iMark™ microplate absorbance reader, Bio-Rad Laboratories, Hercules, Calif., USA). Two independent experiments were performed in triplicate for each experimental condition. The statistical significance of the difference between biofilm controls and biofilms in the presence of different concentrations of compounds was evaluated using Student's t test. […] Images were recorded at an emission wavelength of 500 nm for SYTO 9 (green fluorescence) and of 635 nm for propidium iodide (red fluorescence).

E. faecalis W1 (VRE) = assay: Antibacterial susceptibility testing, broth microdilution (MIC/MBC); assay type: cell-based, Enterococcus faecalis; conditions: E. faecalis W1 (VRE)
Method: as §2, §3

E. faecalis ATCC 29212 = assay: as above; assay type: cell-based, Enterococcus faecalis
Method: as §2, §3

P. aeruginosa ATCC 27853 = assay: Antibacterial susceptibility testing, broth microdilution (MIC); assay type: cell-based, Pseudomonas aeruginosa
Method: as §2, §3

S. aureus B1 [7] = assay: Biofilm inhibitory and biofilm eradication concentrations on 24-h mature biofilms; assay type: cell-based, Staphylococcus aureus
Method: as §4

Minimum inhibitory concentration-MIC (B. subtilis ATCC 6633): 128 µg/mL (≈ 270 µM) | Minimum inhibitory concentration-MIC (S. aureus B1 (MRSA)): 8 µg/mL (≈ 16.9 µM) | Minimum inhibitory concentration-MIC (S. aureus ATCC 25923): 8 µg/mL (≈ 16.9 µM) | MIC value ([4]; S. aureus and E. faecalis strains, including multidrug-resistant isolates (MRSA, VRE)): 8 µg/mL (≈ 16.9 µM) | MBC relative to the MIC ([4]; Table 3 versus Table 2): usually four times higher than the MIC | Minimum inhibitory concentration-MIC (E. coli ATCC 25922): >256 µg/mL | Minimum inhibitory concentration-MIC (E. faecalis W1 (VRE)): 8 µg/mL (≈ 16.9 µM) | Minimum inhibitory concentration-MIC (E. faecalis ATCC 29212): 8 µg/mL (≈ 16.9 µM) | Minimum inhibitory concentration-MIC (P. aeruginosa ATCC 27853): >256 µg/mL
Structure (SMILES): CC(C)[C@@H]1NC(=O)[C@@H](C[C@]2(O)c3ccccc3N3C(=O)[C@@H](C)N[C@H]32)n2c1nc1ccccc1c2=O [FIG. 1I (eq. ix), neofiscalin A]
biofilm formation (biomass, crystal violet) ([1]; 2×MIC and MIC): none of the strains was able to form a biofilm | biofilm formation ([1]; MRSA and VRE strains): inhibit the biofilm formation | biofilm formation (biomass, crystal violet) ([1]; ¼×MIC): allowed the formation of a larger biofilm, but smaller than that observed in the control group | biofilm formation (biomass, crystal violet) ([1]; ½×MIC): the strains did not succeed in forming much biofilm | reduction of metabolic activity of biofilm (MTT) (E. faecalis W1 [2]): ~50% | reduction of metabolic activity of biofilm (MTT) (S. aureus B1 [3]): ~50% | Minimum bactericidal concentration-MBC (B. subtilis ATCC 6633): >256 µg/mL | Minimum bactericidal concentration-MBC (S. aureus B1 (MRSA)): 32 µg/mL (≈ 67.6 µM) | Minimum bactericidal concentration-MBC (S. aureus ATCC 25923): 16 µg/mL (≈ 33.8 µM) | antibacterial activity ([4]; reference strains and multidrug-resistant isolates, highest concentration tested 256 μg/ml): presented antibacterial activity against Gram-positive bacteria | biofilm inhibitory concentration (BIC) (E. faecalis W1 [5]; 24-h biofilms of E. faecalis W1 (VRE)): 80 µg/mL | biofilm eradication concentration (BEC) (E. faecalis W1 [5]; 24-h biofilms of E. faecalis W1, higher than 25×MIC): > 200 µg/mL | biofilm formation (Live/Dead microscopy) ([6]; at the MIC): no biofilm was produced | biofilm formation (Live/Dead microscopy) ([6]; ¼×MIC): a biofilm was formed (FIG. 4C), though it was not as large as in the control | Minimum bactericidal concentration-MBC (E. faecalis W1 (VRE)): 32 µg/mL (≈ 67.6 µM) | Minimum bactericidal concentration-MBC (E. faecalis ATCC 29212): 32 µg/mL (≈ 67.6 µM) | biofilm inhibitory concentration (BIC) (S. aureus B1 [7]; 24-h biofilms of S. aureus B1 (MRSA)): 96 µg/mL | biofilm eradication concentration (BEC) (S. aureus B1 [7]; 24-h biofilms of S. aureus B1, higher than 25×MIC): > 200 µg/mL
